Reference: ChEMBL document CHEMBL1138536, “A Ser678Pro substitution in Fks1p confers resistance to echinocandin drugs in Aspergillus fumigatus” (Antimicrob Agents Chemother, 2007)
In brackets after ≈: the same amount, converted by molar mass. Numbered stars: 1 amine (or outer) side, 2 acyl side, 3 side chain; on linkers, the order of the positions; unused ones are H or OH. Bridge positions count the residues as written; N and C are the ends. Square brackets hold non-standard residues; d marks the D form. Peptide text beside a SMILES is read from it. * marks the point of attachment. hTyr(3S-OH,4S-OH,3'-OSO3H) = N[C@H](C(=O)O)[C@H](O)[C@@H](O)c1ccc(O)c(OS(=O)(=O)O)c1; pTerphenylCO(4''-OnC5H11) = CCCCCOc1ccc(-c2ccc(-c3ccc(C(=O)*)cc3)cc2)cc1; Orn(4R-OH,5R-OH) = O=C([C@H](C[C@@H](O)[C@@H](O)N[*:3])N[*:1])[*:2]; hTyr(3S-OH,4S-OH) = N[C@H](C(=O)O)[C@H](O)[C@@H](O)c1ccc(O)cc1; Pro(3S-OH,4S-Me) = C[C@H]1CN[C@H](C(=O)O)[C@H]1O; X1 = CCCCCOc1ccc(-c2cc(-c3ccc(C(=O)*)cc3)no2)cc1; Gln(3R-OH) = NC(=O)C[C@@H](O)[C@H](N)C(=O)O; Hyp = O=C(O)[C@@H]1C[C@@H](O)CN1

Legend:
[1] = Inhibition of 1,3-beta-D-glucan synthase EMFR-S678P/WT mutant from Aspergillus fumigatus assessed as incorporation of [3H]glucose
Aspergillus fumigatus [2] = experiment: Antifungal activity against Aspergillus fumigatus expressing fks1 gene EMFR-S678P mutant after 24 to 48 hrs by broth dilution susceptibility test; format: functional; details: read-out: MEC
[3] = Inhibition of wild-type 1,3-beta-D-glucan synthase KU80delta from Aspergillus fumigatus assessed as incorporation of [3H]glucose
Aspergillus fumigatus [4] = experiment: Antifungal activity against Aspergillus fumigatus expressing wild-type fks1 gene KU80delta after 24 to 48 hrs by broth dilution susceptibility test; format: functional; details: read-out: MEC
Aspergillus fumigatus [5] = experiment: Ratio of IC50 for Aspergillus fumigatus 1,3-beta-D-glucan synthase EMFR-S678P mutant to IC50 for Aspergillus fumigatus wild-type 1,3-beta-D-glucan synthase KU80delta
Fksp = Fksp (Neosartorya fumigata (Aspergillus fumigatus), UniProt P87204, S678P); experiment: Inhibition of 1,3-beta-D-glucan synthase EMFR-S678P mutant from Aspergillus fumigatus assessed as incorporation of [3H]glucose
Fksp, sequence (P87204 entry or part of it S678P): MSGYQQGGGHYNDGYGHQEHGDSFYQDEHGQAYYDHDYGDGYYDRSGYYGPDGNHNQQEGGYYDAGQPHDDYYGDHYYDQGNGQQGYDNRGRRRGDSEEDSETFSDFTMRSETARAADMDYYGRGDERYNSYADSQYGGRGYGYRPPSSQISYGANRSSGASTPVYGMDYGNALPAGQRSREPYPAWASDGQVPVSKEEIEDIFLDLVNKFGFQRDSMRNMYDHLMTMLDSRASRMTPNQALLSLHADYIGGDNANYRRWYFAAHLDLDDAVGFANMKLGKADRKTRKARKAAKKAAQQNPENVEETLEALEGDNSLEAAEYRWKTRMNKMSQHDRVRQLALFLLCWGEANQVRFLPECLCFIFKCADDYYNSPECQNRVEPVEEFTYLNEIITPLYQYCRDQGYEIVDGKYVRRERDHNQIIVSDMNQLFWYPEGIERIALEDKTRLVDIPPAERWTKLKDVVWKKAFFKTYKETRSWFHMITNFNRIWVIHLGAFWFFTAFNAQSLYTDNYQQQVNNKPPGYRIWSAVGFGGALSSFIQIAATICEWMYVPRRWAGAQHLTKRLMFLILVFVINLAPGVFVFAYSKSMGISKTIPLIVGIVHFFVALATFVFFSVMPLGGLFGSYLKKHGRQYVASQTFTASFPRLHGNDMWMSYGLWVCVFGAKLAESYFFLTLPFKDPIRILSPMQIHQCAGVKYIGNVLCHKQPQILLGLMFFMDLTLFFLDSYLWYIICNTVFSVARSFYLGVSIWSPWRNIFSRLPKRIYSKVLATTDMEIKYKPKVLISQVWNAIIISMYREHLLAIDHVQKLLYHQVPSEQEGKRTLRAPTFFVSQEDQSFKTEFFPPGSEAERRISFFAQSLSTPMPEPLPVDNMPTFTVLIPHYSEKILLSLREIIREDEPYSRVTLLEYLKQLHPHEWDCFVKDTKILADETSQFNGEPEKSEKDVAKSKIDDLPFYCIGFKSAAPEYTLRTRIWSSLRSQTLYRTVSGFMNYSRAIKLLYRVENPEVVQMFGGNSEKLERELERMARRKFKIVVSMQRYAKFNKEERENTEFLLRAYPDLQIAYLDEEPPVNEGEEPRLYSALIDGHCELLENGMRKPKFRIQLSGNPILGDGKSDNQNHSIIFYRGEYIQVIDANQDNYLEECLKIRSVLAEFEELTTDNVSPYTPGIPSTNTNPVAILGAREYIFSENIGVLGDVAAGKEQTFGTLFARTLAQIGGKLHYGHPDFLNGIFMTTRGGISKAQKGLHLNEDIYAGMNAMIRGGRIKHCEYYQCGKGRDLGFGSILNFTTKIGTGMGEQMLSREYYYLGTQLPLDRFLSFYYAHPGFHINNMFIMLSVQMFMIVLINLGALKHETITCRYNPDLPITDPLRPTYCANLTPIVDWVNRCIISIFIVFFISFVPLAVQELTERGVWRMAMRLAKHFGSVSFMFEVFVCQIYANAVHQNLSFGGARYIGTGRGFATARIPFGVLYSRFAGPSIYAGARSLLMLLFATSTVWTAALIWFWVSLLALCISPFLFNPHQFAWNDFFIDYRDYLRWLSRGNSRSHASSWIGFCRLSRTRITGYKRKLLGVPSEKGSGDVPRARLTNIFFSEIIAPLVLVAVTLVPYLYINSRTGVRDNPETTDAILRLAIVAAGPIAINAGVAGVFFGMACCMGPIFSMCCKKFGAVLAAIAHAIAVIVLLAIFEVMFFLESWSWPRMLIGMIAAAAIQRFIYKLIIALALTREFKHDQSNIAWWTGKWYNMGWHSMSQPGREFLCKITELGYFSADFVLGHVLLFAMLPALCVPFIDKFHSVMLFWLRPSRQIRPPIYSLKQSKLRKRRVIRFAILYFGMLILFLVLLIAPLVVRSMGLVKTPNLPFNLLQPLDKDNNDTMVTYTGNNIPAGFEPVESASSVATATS

Aspergillus fumigatus [6] = experiment: Antifungal activity against Aspergillus fumigatus expressing fks1 gene EMFR-S678P/WT mutant after 24 to 48 hrs by broth dilution susceptibility test; format: functional; details: read-out: MEC

Compound | IC50 [1] | minimal effective concentration (Aspergillus fumigatus [2]) | IC50 [3] | minimal effective concentration (Aspergillus fumigatus [4]) | Ratio IC50 (Aspergillus fumigatus [5]) | IC50 (Fksp) | minimal effective concentration (Aspergillus fumigatus [6])
CCCCCOc1ccc(-c2cc(-c3ccc(C(=O)N[C@H]4C[C@@H](O)[C@@H](O)NC(=O)[C@@H]5[C@@H](O)[C@@H](C)CN5C(=O)[C@H]([C@H](O)CC(N)=O)NC(=O)[C@H]([C@H](O)[C@@H](O)c5ccc(O)c(OS(=O)(=O)O)c5)NC(=O)[C@@H]5C[C@@H](O)CN5C(=O)[C@H]([C@@H](C)O)NC4=O)cc3)no2)cc1 [MICAFUNGIN] (X1-[Orn(4R-OH,5R-OH)]T[Hyp][hTyr(3S-OH,4S-OH,3'-OSO3H)][Gln(3R-OH)][Pro(3S-OH,4S-Me)]; lactam 1-C) | 0.5 ng/mL (≈ 0.394 nM) | > 16 µg/mL | 0.63 ng/mL (≈ 0.496 nM) | 0.015 µg/mL | 20 | 9.93 nM | 8 µg/mL
CCCCCOc1ccc(-c2ccc(-c3ccc(C(=O)N[C@H]4C[C@@H](O)[C@@H](O)NC(=O)[C@@H]5[C@@H](O)[C@@H](C)CN5C(=O)[C@H]([C@@H](C)O)NC(=O)[C@H]([C@H](O)[C@@H](O)c5ccc(O)cc5)NC(=O)[C@@H]5C[C@@H](O)CN5C(=O)[C@H]([C@@H](C)O)NC4=O)cc3)cc2)cc1 [ANIDULAFUNGIN] ({pTerphenylCO(4''-OnC5H11)}-[Orn(4R-OH,5R-OH)]T[Hyp][hTyr(3S-OH,4S-OH)]T[Pro(3S-OH,4S-Me)]; lactam 1-C) | 0.37 ng/mL (≈ 0.324 nM) | 16 µg/mL | 0.24 ng/mL (≈ 0.21 nM) | 0.015 µg/mL | 122 | 25.6 nM | 8 µg/mL
CC[C@H](C)C[C@H](C)CCCCCCCCC(=O)N[C@H]1C[C@@H](O)[C@@H](NCCN)NC(=O)[C@@H]2[C@@H](O)CCN2C(=O)[C@H]([C@H](O)CCN)NC(=O)[C@H]([C@H](O)[C@@H](O)c2ccc(O)cc2)NC(=O)[C@@H]2C[C@@H](O)CN2C(=O)[C@H]([C@@H](C)O)NC1=O [CASPOFUNGIN] | 0.12 ng/mL (≈ 0.11 nM) | > 16 µg/mL | 0.91 ng/mL (≈ 0.832 nM) | 0.25 µg/mL | 121 | 100 nM | > 16 µg/mL
